Reference: PMC11036396 (2024)
Blank lines part the entries; values can stand above or below the compound they belong to.

How the values were obtained:
[1] = system: Trp aptamer (Cy5-labelled, Trp aptamer sensor) (DNA, aptamer) AGCACGTTGGTTAGGTCAGGTTTGGGTTTCGTGC; assay: strand-displacement fluorescence titration (Langmuir fit); conditions: 2.7 mM KCl, 5 mM MgCl2, 500 mM NaCl; TAB pH 7.4, 25 °C; displaces CS-10-BHQ2 quencher strand; 0.5 μM aptamer, 1.25 μM CS-10; apparent
[2] = system: Trp aptamer (Cy5-labelled, Trp aptamer sensor) (DNA, aptamer) AGCACGTTGGTTAGGTCAGGTTTGGGTTTCGTGC; assay: strand-displacement fluorescence; conditions: 2.7 mM KCl, 5 mM MgCl2, 500 mM NaCl
[3] = TAB pH 7.4, displaces CS-10-BHQ2 quencher strand, distinguished from its precursor

- Ksens [1]: 3.3 [2.8–4.6, 95% credible region] mM
SMILES: N[C@@H](Cc1c[nH]c2ccccc12)C(=O)O

- binding ([2]; TAB pH 7.4, 25 °C, displaces CS-10-BHQ2 quencher strand, 5 mM compound): yes
SMILES: N[C@H](Cc1c[nH]c2ccccc12)C(=O)O

Continued, compound first:

SMILES: N[C@@H](Cc1c[nH]c2ccc(F)cc12)C(=O)O
- binding [2, 3]: yes

SMILES: N[C@@H](Cc1ccccc1)C(=O)O
- binding ([2]; TAB pH 7.4, 25 °C, CS-10-BHQ2 quencher strand, highest concentration 5 mM): no

SMILES: COc1ccc2[nH]cc(C[C@H](N)C(=O)O)c2c1
- binding [2, 3]: yes
